Results: patent publication US20260034252A1, “FIBROBLAST ACTIVATION PROTEIN-TARGETED COMPOSITIONS AND METHODS OF USE THEREOF” (Ratio Therapeutics, Inc., priority 2022, published 2026)

What was measured:
FAP = FAP (Homo sapiens (Human), UniProt Q12884); test: FAP protease inhibition assay (FAM-labeled substrate peptide, microfluidic electrophoresis); type: biochemical; conditions: enzyme 0.5 nM, substrate peptide 1 uM, 15 minutes pre-incubation, three hours for human FAP
Method: Protease reactions were assembled in 384 well plates (Greiner) in a total volume of 20 uL as described below.
Recombinant proteins were pre-diluted in assay buffer comprising of 100 mM HEPES, pH 7.5, 0.1% BSA, 0.01% Triton X-100, 1 mM DTT, and dispensed into 384 well plate (10 uL per well). Test compounds were serially pre-diluted in DMSO and added to the assay wells by acoustic dispensing (Labcyte Echo 550). Control samples (0%-inhibition in the absence of inhibitor, DMSO only) and 100%-inhibition (in the absence of enzyme) were assembled in replicates of four and used to calculate the %-inhibition in the presence of compounds. Concentration of DMSO was equalized to 1% in all samples.
Compounds were pre-incubated with enzymes for 15 minutes. Human FAP was obtained from Enzo, catalogue number BML-SE409-0010. […] Final concentration of enzymes were 0.5 nM. Final concentration of substrate peptides was 1 uM.
The reactions were allowed to proceed at room temperature. Incubation time was three hours for human FAP, 0.5 hours for mouse FAP.
Terminated plates were analyzed using a microfluidic electrophoresis instrument (Caliper LabChip® 3000, Caliper Life Sciences/Perkin Elmer). A change in relative intensity of the peptide substrate and cleaved product was the parameter measured. Activity in each test sample was determined as the product to sum ratio (PSR):P/(S+P), where P is the peak height of the product, and S is the peak height of the substrate. Percent inhibition (Pinh) was determined using the following equation: Pinh=(PSR0% inh−PSRcompound)/(PSR0% inh−PSR100% inh)*100, in which: PSRcompound is the product/sum ratio in the presence of compound, PSR0% inh is the product/sum ratio in the absence of compound and the PSR100% inh is the product/sum ratio in the absence of the enzyme.

[1] = tested on: U-87 (human glioblastoma) cells; test: Detection of tumors in BALB/c nude mice transplanted with U-87 cells; type: in vivo; conditions: 1 μg intravenous injection, one hour
Method: BALB/c nude mice were transplanted with approximately 10^7 U-87 (human glioblastoma) cells and the tumors allowed to develop. 1 μg of an ^18F-labeled FAP-targeted agent of the invention, RTX-1312S (prepared according to Example 13), was administered to the mice by intravenous injection (e.g., tail vein), which were then sacrificed after one hour. FIG. 1a illustrates tumor binding of the ^18F-labeled FAP-targeted compound in mice.

FAP, sequence (Q12884 whole entry): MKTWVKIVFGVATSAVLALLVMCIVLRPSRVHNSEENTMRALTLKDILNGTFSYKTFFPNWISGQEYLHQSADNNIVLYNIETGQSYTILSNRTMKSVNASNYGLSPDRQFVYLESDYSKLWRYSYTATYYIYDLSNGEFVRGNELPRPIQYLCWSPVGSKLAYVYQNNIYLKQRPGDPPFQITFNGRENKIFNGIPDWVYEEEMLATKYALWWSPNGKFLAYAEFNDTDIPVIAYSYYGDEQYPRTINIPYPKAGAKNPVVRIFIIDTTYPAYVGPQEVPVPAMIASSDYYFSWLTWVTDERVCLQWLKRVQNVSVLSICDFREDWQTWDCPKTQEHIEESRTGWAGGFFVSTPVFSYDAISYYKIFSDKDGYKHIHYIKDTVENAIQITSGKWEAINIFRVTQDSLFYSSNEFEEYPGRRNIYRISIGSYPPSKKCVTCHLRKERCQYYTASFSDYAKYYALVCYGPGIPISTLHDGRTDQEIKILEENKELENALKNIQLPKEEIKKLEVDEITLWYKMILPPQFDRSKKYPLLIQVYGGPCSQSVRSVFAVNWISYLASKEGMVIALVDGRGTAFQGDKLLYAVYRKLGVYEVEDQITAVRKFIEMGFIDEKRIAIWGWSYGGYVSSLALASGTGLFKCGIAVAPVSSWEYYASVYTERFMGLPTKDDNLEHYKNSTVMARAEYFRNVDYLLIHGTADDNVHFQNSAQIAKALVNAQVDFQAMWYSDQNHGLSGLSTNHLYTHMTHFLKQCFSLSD

IC50 (FAP): < 100 pM
tumor binding of 18F-labeled compound [1]: tumor binding
SMILES: CC(=O)NCCCC[C@H](NC(=O)[C@H](CCCCNC(=S)Nc1ccc(CC2CN(CC(=O)O)CCN(CC(=O)O)CCN2CC(=O)O)cc1)NC(=O)CCOCCOCCOCCNC(=O)COc1ccc2c(C(=O)NCC(=O)N3CCC[C@H]3C#N)ccnc2c1)C(=O)O (stereo partly drawn) [RTX-1312S, (S)-2-[(S)-2-(3-{2-[2-(2-{2-[4-({2-[(S)-2-Cyano-1-pyrrolidinyl]-2-oxoethylamino}carbonyl)-7-quinolyloxy]acetylamino}ethoxy)ethoxy]ethoxy}propionylamino)-6-[3-(p-{[1,4,7-tris(carboxymethyl)-1,4,7-triazonan-2-yl]methyl}phenyl)thioureido]hexanoylamino]-6-acetylaminohexanoic Acid]
